According to the supplement of paper PMC10307832:

Assays:
Test in all cases: relative viability (nuclei count vs DMSO), 5 days (fraction); higher = more cells survive
[1] = compound: COc1cc2nccc(Oc3ccc(NC(=O)C4(C(=O)Nc5ccc(F)cc5)CC4)cc3)c2cc1OC [Cabozantinib] + C[C@]1(O)C[C@@H](c2nc(-c3ccc4ccc(-c5ccccc5)nc4c3)c3c(N)nccn32)C1 [Linsitinib] (partner 1 µM)
Summary of the method: (§1)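 Lung cancer cell lines, seeded in 1536-well plates, were treated the following day by pin tool with a single drug or with five library-drug doses (not always all listed) in √10 steps on top of a fixed anchor-drug dose. Cells were fixed and nuclei stained in one step after 5 days, and nuclei were counted. Relative viability is the nuclei count for treated wells divided by that for vehicle wells, reported as medians of duplicate plates.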

[2] = compound: O[C@@H](COc1cccc2ncccc12)CN1CCN([C@@H]2c3ccccc3[C@@H]3[C@H](c4ccccc42)C3(F)F)CC1 [Zosuquidar] + COc1cccc2cc(-c3nc([C@H]4CC[C@H](C(=O)O)CC4)n4ncnc(N)c34)[nH]c12 [OSI-027] (partner 0.5 µM)
Summary of the method: as §1

[3] = compound: O[C@@H](COc1cccc2ncccc12)CN1CCN([C@@H]2c3ccccc3[C@@H]3[C@H](c4ccccc42)C3(F)F)CC1 [Zosuquidar] + NC(=O)Nc1cc(-c2cccc(F)c2)sc1C(=O)N[C@H]1CCCNC1 [AZD7762] (partner 0.2 µM)
Summary of the method: as §1

[4] = compound: O[C@@H](COc1cccc2ncccc12)CN1CCN([C@@H]2c3ccccc3[C@@H]3[C@H](c4ccccc42)C3(F)F)CC1 [Zosuquidar] + Nc1nc2[nH]cc(CCc3ccc(C(=O)N[C@@H](CCC(=O)O)C(=O)O)cc3)c2c(=O)[nH]1 [Pemetrexed] (partner 0.2 µM)
Summary of the method: as §1

Cell Line | relative viability ([1]; first compound 0.02 µM) | relative viability ([1]; first compound 0.06325 µM) | relative viability ([1]; first compound 0.2 µM) | relative viability ([1]; first compound 0.6325 µM) | relative viability ([1]; first compound 2 µM) | relative viability ([2]; first compound 0.01 µM) | relative viability ([2]; first compound 0.1 µM) | relative viability ([2]; first compound 0.3162 µM) | relative viability ([2]; first compound 1 µM) | relative viability ([3]; first compound 0.01 µM) | relative viability ([3]; first compound 0.03162 µM) | relative viability ([3]; first compound 0.1 µM) | relative viability ([3]; first compound 0.3162 µM) | relative viability ([3]; first compound 1 µM) | relative viability ([4]; first compound 0.01 µM) | relative viability ([4]; first compound 0.03162 µM) | relative viability ([4]; first compound 0.1 µM) | relative viability ([4]; first compound 0.3162 µM) | relative viability ([4]; first compound 1 µM) | relative viability ([2]; first compound 0.03162 µM)
NCI-H2087 | 1.03 | 1 | 1.06 | 1.02 | 1 | 0.607 | 0.432 | 0.694 | 0.587 | 1.22 | 1.39 | 1.32 | 1.41 | 1.26 | 0.597 | 0.667 | 0.62 | 0.643 | 0.637 | –
NCI-H647 | 1.28 | 1.53 | 1.33 | 1.12 | 1.11 | 0.64 | 0.552 | 0.886 | 0.723 | 0.417 | 0.392 | 0.322 | 0.681 | 0.516 | 0.188 | 0.177 | 0.178 | 0.168 | 0.139 | 0.63
Calu-6 | 1.06 | 0.975 | 1.01 | 0.871 | 0.881 | – | – | – | – | – | – | – | – | – | – | – | – | – | – | –
LCLC-103H | 1.21 | 1.01 | 1.07 | 0.986 | 1.05 | 0.474 | 0.402 | 0.478 | 0.528 | 0.793 | 0.76 | 0.672 | 0.755 | 0.809 | 0.495 | 0.489 | 0.453 | 0.46 | 0.46 | 0.469
HCC-15 | 1 | 0.958 | 0.846 | 0.843 | 0.736 | 0.653 | 0.568 | 0.779 | 0.725 | 1.11 | 1.27 | 1.17 | 1.18 | 1.16 | 0.209 | 0.218 | 0.255 | 0.219 | 0.236 | 0.64
NCI-H1650 | – | – | – | – | – | 0.737 | 0.601 | 0.759 | 0.669 | – | – | – | – | – | 0.378 | 0.373 | 0.327 | 0.479 | 0.401 | 0.607
NCI-H661 | 0.621 | 0.503 | 0.557 | 0.455 | 0.413 | 0.654 | 0.596 | 0.714 | 0.695 | – | – | – | – | – | 0.914 | 0.902 | 0.846 | 0.928 | 0.851 | 0.67
NCI-H522 | – | – | – | – | – | 0.714 | 0.756 | 0.898 | 0.857 | 0.993 | 0.928 | 1.05 | 0.807 | 0.984 | 0.958 | 0.897 | 0.968 | 0.843 | 1.17 | 0.58
COR-L23 | 1.03 | 1.27 | 0.866 | 0.954 | 0.863 | 0.738 | 0.688 | 0.858 | 0.757 | – | – | – | – | – | 0.222 | 0.188 | 0.201 | 0.198 | 0.189 | 0.702
NCI-H727 | 0.323 | 0.231 | 0.282 | 0.22 | 0.309 | 0.622 | 0.343 | 0.783 | 0.705 | 0.502 | 0.573 | – | 0.714 | 0.405 | – | – | – | – | – | 0.538
NCI-H2009 | 1.23 | 1.17 | 1.18 | 1.19 | 1.23 | 0.64 | 0.529 | 0.782 | 0.645 | – | – | – | – | – | 1.04 | 1.04 | 1.01 | 0.902 | 1.06 | 0.684
ChaGo-K-1 | – | – | – | – | – | 0.595 | 0.644 | 0.553 | 0.522 | 0.807 | 0.799 | 0.896 | 0.818 | 0.93 | 0.266 | 0.255 | 0.263 | 0.266 | 0.26 | 0.479
NCI-H1648 | – | – | – | – | – | 0.243 | 0.234 | 0.288 | 0.245 | 0.633 | 1.13 | 0.671 | 0.538 | 0.594 | 1.57 | 0.99 | 0.568 | 0.717 | 0.627 | –
NCI-H1703 | 0.601 | 0.35 | 0.287 | 0.165 | 0.146 | – | – | – | – | 0.0988 | 0.125 | – | 0.136 | 0.125 | – | – | – | – | – | –
EBC-1 | 1.04 | 0.942 | 0.432 | 0.121 | 0.116 | – | – | – | – | – | – | – | – | – | – | – | – | – | – | –
NCI-H2023 | 0.637 | 0.76 | 0.465 | 0.459 | 0.316 | 0.354 | 0.325 | 0.665 | 0.427 | – | – | – | – | – | 0.224 | 0.233 | 0.212 | 0.302 | 0.297 | 0.401
NCI-H1563 | 0.853 | 1.3 | 1.37 | 1.11 | 0.957 | 0.751 | 0.753 | 0.762 | 0.827 | – | – | – | – | – | 0.623 | 0.786 | 0.679 | 0.729 | 0.743 | 0.663
IA-LM | 0.704 | 0.689 | 0.683 | 0.559 | 0.696 | – | – | – | – | – | – | – | – | – | – | – | – | – | – | –
ABC-1 | 0.719 | 0.816 | 0.81 | 0.87 | 0.754 | 0.479 | 0.607 | 0.54 | 0.509 | 0.69 | 0.864 | 0.665 | 0.717 | 0.733 | – | – | – | – | – | 0.426
SK-MES-1 | 1.12 | 1.1 | 0.988 | 1.12 | 1.06 | 0.639 | 0.549 | 0.638 | 0.652 | – | – | – | – | – | 0.957 | 0.952 | 0.85 | 1.07 | 1.04 | 0.665
NCI-H2170 | – | – | – | – | – | 0.701 | 0.641 | 0.743 | 0.713 | 0.866 | 0.916 | 0.776 | 0.898 | 0.858 | 0.283 | 0.263 | 0.263 | 0.269 | 0.255 | 0.731
SK-LU-1 | – | 1.34 | 1.08 | 1.34 | 0.823 | 0.369 | 0.401 | 0.432 | 0.33 | – | – | – | – | – | 0.975 | 0.795 | 1.06 | 1.03 | 0.962 | 0.35
